These results are taken from ChEMBL document CHEMBL1201862, “PubChem BioAssay data set” (2004).

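Assay format: 96-well plates, 48-hour exposure. GI50 = concentration required for 50% inhibition of growth.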 The source made the active and inactive calls. Cut-off read from the data, not from the text of the source: active = GI50 up to about 1.1 µM and inactive = higher. Some results are limits rather than exact numbers.

Holding throughout (assay): NCI anticancer screen, dose series, 48 h
The test system of experiment [1] is MDA-N.
For experiment [2], the system named is SK-MEL-5.
For experiment [3], the system named is NCI-H460.
Experiment [4] relates to M14.
Experiment [5] deals with SK-MEL-2.
For experiment [6], the system named is OVCAR-3.
Experiment [7] deals with IGROV-1.
Experiment [8] concerns CCRF-CEM.
For experiment [9], the system named is RXF 393.
Experiment [10] concerns SNB-19.
For experiment [11], the system named is MOLT-4.
Experiment [12] relates to HL-60.
Experiment [13] has as its system NCI-H226.
Experiment [14] has as its system HCT-15.
Experiment [15] concerns MDA-MB-231.
For experiment [16], the system named is KM12.
For experiment [17], the system named is MCF7.
Experiment [18] relates to SNB-75.
For experiment [19], the system named is NCI-H522.
Experiment [20] deals with UACC-257.

Regarding `CC1=[N+]([O-])C(C)(C)N(O)C1(C)C`, the GI50 in [1], in [2], in [3], in [4], in experiment [5] and in [6] was > 100 µM (inactive) throughout. In addition, the GI50 in experiment [7], in [8], in experiment [9], in experiment [10], in [11] and in experiment [12] was > 100 µM (inactive) each time. Moreover, the GI50 in experiment [13] is > 100 µM (inactive); in experiment [14], over 100 µM; in [15], > 100 µM (inactive); in [16], > 100 µM (inactive); in experiment [17], > 100 µM (inactive); in [18] it was > 100 µM (inactive). For the same compound, the GI50 in experiment [19] was > 100 µM (inactive).

Consider `Cc1cc(O)cc2c1c(=O)c1ccccc1n2C`, for which the GI50 in experiment [1] is > 100 µM (inactive); in [2], 62.5 µM (inactive); in experiment [3], 5.33 µM (inactive); in experiment [4], > 100 µM (inactive); in [5] it was > 100 µM (inactive); in [20], > 100 µM (inactive). Further, the GI50 was > 100 µM (inactive) in experiment [6]; > 100 µM (inactive) in experiment [7]; > 100 µM (inactive) in experiment [8]; 41.5 µM (inactive) in experiment [9]; 34.8 µM (inactive) in experiment [10]; 55.1 µM (inactive) in experiment [11]. Besides, the GI50 is 66.8 µM (inactive) in experiment [12]; 49.1 µM (inactive) in [13]; over 100 µM in experiment [14]; > 100 µM (inactive) in experiment [15]; > 100 µM (inactive) in [16]; > 100 µM (inactive) in experiment [17]. In addition, the values for the GI50 in [18] and in experiment [19] were 87.5 µM (inactive) and 34.8 µM (inactive), respectively.

For `COc1ccc2nc3ccccc3c(NCCCN(C)CCCl)c2c1`, the GI50 was 0.311 µM (active) in experiment [1]; 0.365 µM (active) in experiment [2]; 0.0791 µM (active) in experiment [3]; 0.453 µM (active) in experiment [4]; 0.557 µM (active) in experiment [5]; 0.644 µM (active) in experiment [20]. In addition, the GI50 was 0.682 µM (active) in experiment [6]; 0.328 µM (active) in experiment [7]; 0.064 µM (active) in experiment [8]; 0.284 µM (active) in experiment [9]; 0.601 µM (active) in experiment [10]; < 0.0133 µM (active) in experiment [11]. Besides, the GI50 in [12] is 0.0614 µM (active); in [13] it was 0.226 µM (active); in experiment [14], 0.444 µM; in experiment [15], 0.641 µM (active); in [16], 0.426 µM (active); in experiment [17], 0.213 µM (active). Besides, the values for the GI50 in experiment [18] and in experiment [19] were 0.224 µM (active) and 0.101 µM (active), respectively.

Turning to `O=C1C[C@@H](Sc2ccccc2)C2(OCCO2)C2ON3CCCC[C@H]3[C@H]12` (some centres undefined), the GI50 in [1] is 13.2 µM (inactive); in [2], 7.74 µM (inactive); in experiment [3] it was 9.66 µM (inactive); in experiment [4] it was 10.7 µM (inactive); in experiment [5], 18.1 µM (inactive); in experiment [20], 14.2 µM (inactive). The GI50 in experiment [6] is 13 µM (inactive); in experiment [7] it was 5.48 µM (inactive); in [8] it was 0.92 µM (active); in experiment [9], 4.48 µM (inactive); in experiment [10], 10.5 µM (inactive); in experiment [11], 0.989 µM (active). Moreover, the GI50 was 1.67 µM (inactive) in [12]; 13.8 µM (inactive) in experiment [13]; 2.81 µM in experiment [14]; 12.6 µM (inactive) in experiment [15]; 4.48 µM (inactive) in experiment [16]; 6.32 µM (inactive) in [17]. In addition, the GI50 in [18] was 12.4 µM (inactive); in [19] it was 2.15 µM (inactive).
